Legend:
[1] = target: T1, cyclooxygenase-1 (COX-1 enzyme) (Homo sapiens, UniProt P23219); experiment: Human whole blood in vitro activity assay, COX-1 (TXB2 by EIA); format: cell-based; settings: read-out: IC50 (μg/mL) COX-1 (converted)
T1 construct: from tissue; host or cells: human whole blood without heparin (platelets) from healthy volunteers
Procedure: Human whole blood in vitro activity study: inhibition of activity of cyclooxygenase-1 (COX-1 enzyme) and cyclooxygenase-2 (COX-2 enzyme) in human blood. […] The blood samples were divided into two parts: one was used for detecting COX-1 enzyme activity, and the other was used for detecting COX-2 enzyme activity. The compounds were dissolved in DMSO, and were prepared in advance into 2 μL solutions in respective concentrations of 500, 50, 5, 0.5, 0.05, 0.005, 0.0005 μg/mL. 200 μL whole blood without heparin was added in the tubes containing the compounds, and then incubated at 37° C. for 1 hour. The activity of COX-1 enzyme was detected by determining the amount of thromboxane B2 (TXB2) synthesized by platelet using an EIA kit. Samples tested without the compounds were negative controls. For COX-2, 200 μL whole blood with heparin was added in the tubes containing the compounds and in the tubes containing 10 μg/mL LPS. LPS control and blank control with solvent only were used respectively for determining the maximum value and the background value of the PGE2 produced therefrom. The samples were incubated at 37° C. for 24 hours, and then centrifuged to collect serum/plasma, which was stored at −80° C. for detection by an EIA kit. The EIA kit of Cayman Company was used, the amounts of TXB2 and PGE2 were determined in accordance to the manufacturer's instructions, and the activities of COX-1 and COX-2 were tested respectively.

[2] = target: T2, COX-1 (Canis lupus familiaris, UniProt Q8HZR1); experiment: Dog whole blood in vitro activity assay, COX-1; format: cell-based, beagle dog; settings: read-out: IC50 (μg/mL) COX-1 (converted)
T2 construct: in vitro activity study using beagle dog whole blood was conducted; from tissue; host or cells: beagle dog whole blood (platelets, by the same method as for human blood)
T2 sequence (Q8HZR1 28-603): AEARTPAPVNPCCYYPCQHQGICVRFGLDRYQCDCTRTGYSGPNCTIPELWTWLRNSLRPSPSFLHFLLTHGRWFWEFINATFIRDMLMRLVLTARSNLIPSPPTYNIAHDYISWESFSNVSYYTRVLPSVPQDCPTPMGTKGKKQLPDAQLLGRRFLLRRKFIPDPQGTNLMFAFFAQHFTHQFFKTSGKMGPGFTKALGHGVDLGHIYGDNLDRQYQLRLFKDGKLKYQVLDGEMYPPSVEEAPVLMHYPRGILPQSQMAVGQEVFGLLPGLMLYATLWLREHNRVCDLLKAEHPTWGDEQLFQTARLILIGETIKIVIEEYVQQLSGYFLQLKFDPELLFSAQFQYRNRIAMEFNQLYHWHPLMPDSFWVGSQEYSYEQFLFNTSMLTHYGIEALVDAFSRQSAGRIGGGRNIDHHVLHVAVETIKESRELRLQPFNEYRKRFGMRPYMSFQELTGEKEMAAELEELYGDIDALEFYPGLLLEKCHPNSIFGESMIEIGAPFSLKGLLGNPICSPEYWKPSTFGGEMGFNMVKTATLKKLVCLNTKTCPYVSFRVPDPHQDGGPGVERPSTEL

[3] = system: mice tail suspension immobility time; experiment: Tail suspension test in mice (anti-depression model); format: in vivo, Male Kunming mice
Procedure: In Vivo Test: Tail Suspension Test in Mice (Evaluation on an Anti-Depression Model)
Male Kunming mice, approximately 20 g, were randomized into six groups, i.e. normal group, positive drug group (fluoxetine 20 mg/kg), compound 1: group A 5 mg/kg, group B 10 mg/kg, group C 20 mg/kg, and group D 40 mg/kg.
Single Dose Test: Mice were normally fed for 1 day and allowed to adapt to the environment. Then the mice were fasted (except water) for 16 hours, and were intragastrically administrated with a single dose of the compound. The normal group was intragastrically administrated with an equivalent amount of distilled water. 40 min after the administration, the mice were inverted and fixed to a tail suspension device, and the distance between the head and the desktop was about 30 cm. Immobility time was recorded with an analysis record system, for the latter 4 min within the 6 min recording period, and was used for statistical analysis.
(§1) Study with Three-Day Consecutive Dosing: Mice were normally fed for 1 day and allowed to adapt to the environment. Then the mice were intragastrically administrated with the test drug for 3 consecutive days (once per day), and the normal group was intragastrically administrated with an equivalent amount of distilled water. The mice were fasted (except water) for 16 hours before the last dosing. 40 min after the last dosing, the mice were inverted and fixed to the tail suspension device, and the distance between the head and the desktop was about 30 cm. Immobility time was recorded with an analysis record system, for the latter 4 min within the 6 min recording period, and was used for statistical analysis.
as §1, with “with Seven-Day” for “with Three-Day”, “intragastrically dosed” for “intragastrically administrated with the test drug”, “for 7” for “for 3”, “days (once/day),” for “days (once per day),”, “last administration.” for “last dosing.”, “last administration,” for “last dosing,”

T1 sequence (P23219 24-599): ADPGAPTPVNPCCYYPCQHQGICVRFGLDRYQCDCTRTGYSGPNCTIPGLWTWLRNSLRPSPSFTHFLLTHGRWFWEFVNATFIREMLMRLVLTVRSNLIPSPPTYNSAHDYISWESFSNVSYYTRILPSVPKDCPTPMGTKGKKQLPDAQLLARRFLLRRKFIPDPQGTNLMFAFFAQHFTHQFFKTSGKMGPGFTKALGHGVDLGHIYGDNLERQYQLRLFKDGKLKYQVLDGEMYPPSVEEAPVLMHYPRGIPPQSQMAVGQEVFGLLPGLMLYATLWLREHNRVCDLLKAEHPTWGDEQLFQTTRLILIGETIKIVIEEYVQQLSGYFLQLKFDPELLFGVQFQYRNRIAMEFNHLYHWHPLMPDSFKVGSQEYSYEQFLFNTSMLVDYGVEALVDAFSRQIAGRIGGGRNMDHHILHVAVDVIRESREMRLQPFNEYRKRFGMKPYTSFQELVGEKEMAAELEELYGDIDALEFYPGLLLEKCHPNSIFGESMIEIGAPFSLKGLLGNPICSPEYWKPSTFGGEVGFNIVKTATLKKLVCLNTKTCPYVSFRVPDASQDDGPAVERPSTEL

Q: `CS(=O)(=O)c1ccc(-n2cnc(Cl)c2-c2ccccc2)nc1` [Compound 1, 2-(4-chloro-5-phenyl-1H-imidazol-1-yl)-5-(methylsulfonyl)pyridine] was tested. Which IC50 [1] did it give?
A: 39.5 µM

Q: What about the IC50 [2] of the same compound?
A: 219 µM

Q: What about the “tail suspension Immobility time” value ([3]; 3 days consecutive administration, 5 mg/kg intragastric, in s (unit assumed)) of the same compound?
A: 45.36 ± 12.09

Q: And the “tail suspension Immobility time” value ([3]; 3 days consecutive administration, 10 mg/kg intragastric, in s (unit assumed))?
A: 31.94 ± 8.76

Q: What about the “tail suspension Immobility time” value ([3]; 3 days consecutive administration, 20 mg/kg intragastric, in s (unit assumed)) of the same compound?
A: 33.64 ± 15.78

Q: And the “tail suspension Immobility time” value ([3]; 3 days consecutive administration, 40 mg/kg intragastric, in s (unit assumed))?
A: 41.36 ± 14.22

Q: And the “tail suspension Immobility time” value ([3]; 7 days consecutive administration, 5 mg/kg intragastric, 5 mg/kg, in s (unit assumed))?
A: 45.11 ± 16.88

Q: What about the “tail suspension Immobility time” value ([3]; 7 days consecutive administration, 5 mg/kg intragastric, listed as test drug, 5 mg/kg) of the same compound?
A: tendency of reduction in immobility time

Q: And the “tail suspension Immobility time” value ([3]; 7 days consecutive administration, 10 mg/kg intragastric, in s (unit assumed))?
A: 36.47 ± 15.13

Q: And the “tail suspension Immobility time” value ([3]; 7 days consecutive administration, 20 mg/kg intragastric, in s (unit assumed))?
A: 29.98 ± 9.87

Q: And the “tail suspension Immobility time” value ([3]; 7 days consecutive administration, 40 mg/kg intragastric, in s (unit assumed))?
A: 29.70 ± 15.02

Q: And the “tail suspension Immobility time” value ([3]; single dose, 5 mg/kg intragastric, 40 min after administration, in s (unit assumed))?
A: 46.57 ± 16.46

Q: What about the “tail suspension Immobility time” value ([3]; single dose, 10 mg/kg intragastric, 40 min after administration, in s (unit assumed)) of the same compound?
A: 47.10 ± 17.93

Q: What about the “tail suspension Immobility time” value ([3]; single dose, 20 mg/kg intragastric, 40 min after administration, in s (unit assumed)) of the same compound?
A: 43.25 ± 14.41

Q: And the “tail suspension Immobility time” value ([3]; single dose, 40 mg/kg intragastric, 40 min after administration, in s (unit assumed))?
A: 46.58 ± 15.32

Reference: patent US9079876B2, “Imidazole derivatives and preparation method and use thereof” (Beijing Orbiepharm Co., Ltd., priority 2010, dated 2015)
